This is an account of results in patent US20230303513A1, “OXOPYRROLIDINE UREA FPR2 AGONISTS” (BRISTOL-MYERS SQUIBB COMPANY, priority 2020, published 2023).

For assay [1], the target named is human FPR1 (Homo sapiens (Human), UniProt P21462). In words: FPR1 cyclic adenosine monophosphate (cAMP) assay. It counts as cell-based. The conditions noted are these: CHO cells overexpressing human FPR1; forskolin 10 μM, IBMX 200 μM; inhibition of cAMP production, HTRF; read-out: hFPR1 cAMP EC50. From the text: (§1) N-formyl peptide receptors (FPRs) are a family of chemo attractant receptors that facilitate leukocyte response during inflammation. FPRs belong to the seven-transmembrane G protein-coupled receptor superfamily and are linked to inhibitory G-proteins (Gi). Three family members (FPR1, FPR2 and FPR3) have been identified in humans and are predominantly found in myeloid cells with varied distribution and have also been reported in multiple organs and tissues. After agonist binding, the FPRs activate a multitude of physiological pathways, such as intra cellular signaling transduction, Ca^21 mobilization and transcription. The family interacts with a diverse set of ligands that includes proteins, polypeptides and fatty acid metabolites which activate both pro-inflammatory and pro-resolution downstream responses. FPR2 and FPR1 Cyclic Adenosine Monophosphate (cAMP) Assays were used to measure the activity of the compounds in this patent.
(§2) FPR2 and FPR1 Cyclic Adenosine Monophosphate (cAMP) Assays. A mixture of forskolin (5 μM final for FPR2 or 10 μM final for FPR1) and IBMX (200 μM final) were added to 384-well Proxiplates (Perkin-Elmer) pre-dotted with test compounds in DMSO (1% final) at final concentrations in the range of 0.020 nM to 100 μM. Chinese Hamster Ovary cells (CHO) overexpressing human FPR1 or human FPR2 receptors were cultured in F-12 (Ham's) medium supplemented with 10% qualified FBS, 250 μg/ml zeocin and 300 μg/ml hygromycin (Life Technologies). Reactions were initiated by adding 2,000 human FPR2 cells per well or 4,000 human FPR1 cells per well in Dulbecco's PBS (with calcium and magnesium) (Life Technologies) supplemented with 0.1% BSA (Perkin-Elmer). The reaction mixtures were incubated for 30 min at room temperature. The level of intracellular cAMP was determined using the HTRF HiRange cAMP assay reagent kit (Cisbio) according to manufacturer's instruction. Solutions of cryptate conjugated anti-cAMP and d2 flurorophore-labelled cAMP were made in a supplied lysis buffer separately. Upon completion of the reaction, the cells were lysed with equal volume of the d2-cAMP solution and anti-cAMP solution. After a 1-h room temperature incubation, time-resolved fluorescence intensity was measured using the Envision (Perkin-Elmer) at 400 nm excitation and dual emission at 590 nm and 665 nm. A calibration curve was constructed with an external cAMP standard at concentrations ranging from 1 μM to 0.1 μM by plotting the fluorescent intensity ratio from 665 nm emission to the intensity from the 590 nm emission against cAMP concentrations. The potency and activity of a compound to inhibit cAMP production was then determined by fitting to a 4-parametric logistic equation from a plot of cAMP level versus compound concentrations.

For assay [2], the target named is human FPR2 (Homo sapiens (Human), UniProt P25090). As to the kind of experiment: FPR2 cyclic adenosine monophosphate (cAMP) assay. The assay is classed as cell-based. The conditions noted are these: CHO cells overexpressing human FPR2; forskolin 5 μM, IBMX 200 μM; inhibition of cAMP production, HTRF; read-out: hFPR2 cAMP2 EC50.
Source text: as §1, §2

Each structure is given as a SMILES string.

As a reminder, the EC50 is the concentration needed to bring the measured effect to its halfway point.

Sequence of human FPR2 (P25090 whole entry): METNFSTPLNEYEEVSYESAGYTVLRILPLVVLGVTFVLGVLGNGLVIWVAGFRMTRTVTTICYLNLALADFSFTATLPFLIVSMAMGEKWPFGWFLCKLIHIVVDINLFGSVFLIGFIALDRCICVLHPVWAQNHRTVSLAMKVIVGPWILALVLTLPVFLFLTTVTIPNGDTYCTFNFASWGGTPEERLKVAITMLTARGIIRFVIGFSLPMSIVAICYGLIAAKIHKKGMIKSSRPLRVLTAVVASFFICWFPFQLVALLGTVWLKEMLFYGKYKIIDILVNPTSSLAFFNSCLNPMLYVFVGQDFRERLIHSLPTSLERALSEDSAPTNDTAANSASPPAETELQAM
Sequence of human FPR1 (P21462 whole entry): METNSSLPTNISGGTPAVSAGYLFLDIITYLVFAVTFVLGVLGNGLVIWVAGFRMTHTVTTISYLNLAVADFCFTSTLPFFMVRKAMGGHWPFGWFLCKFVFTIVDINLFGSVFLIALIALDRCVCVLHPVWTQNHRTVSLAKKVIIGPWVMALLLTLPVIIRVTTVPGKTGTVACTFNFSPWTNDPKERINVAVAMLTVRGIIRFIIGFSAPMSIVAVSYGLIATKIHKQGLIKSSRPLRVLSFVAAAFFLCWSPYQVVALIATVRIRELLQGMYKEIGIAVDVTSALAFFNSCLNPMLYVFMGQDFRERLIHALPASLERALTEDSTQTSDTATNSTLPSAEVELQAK

Take `COCC(CO)n1cccc(N2C[C@@H](c3c(F)cc(OC)cc3F)[C@H](NC(=O)NC3CCc4cc(OC)ccc4C3)C2=O)c1=O` (single isomer, unassigned) [Example 2]: the EC50 in assay [1] is 40 nM; in assay [2] it was 20 nM.

With `COc1cc(F)c([C@H]2[C@H](NC(=O)N[C@H]3CC[C@H](C(F)F)CC3)C(=O)N(c3ncccc3OC(C)C)[C@H]2C)c(F)c1` [Example 51], the EC50 came to 77 nM in assay [1] and 12 nM in assay [2].

For `COc1cc(F)c([C@@H]2CN(c3nccc(N4CCN(S(C)(=O)=O)CC4)c3C(F)(F)F)C(=O)[C@H]2NC(=O)N[C@H]2CC[C@H](C(F)F)CC2)c(F)c1` [Example 88], the EC50 in assay [1] was above 10000 nM; in assay [2] it was 9.1 nM.

Regarding `CCn1cccc(N2C[C@@H](c3ccc(OC)cc3)[C@H](NC(=O)NC3CCc4cc(Cl)ccc4C3)C2=O)c1=O` (stereo partly drawn) [Example 6], the EC50 in assay [1] was found to be 0.1 nM; in assay [2], 0.4 nM.

Take `COc1cc(F)c([C@H]2[C@H](NC(=O)NC3CCc4cc(OC)ccc4C3)C(=O)N(c3ncccc3OC)[C@H]2C)c(F)c1` (stereo partly drawn) [Example 18]: the EC50 in assay [1] stood at 0.2 nM; in assay [2] it was 1.8 nM.

As to `COc1cc(F)c([C@@H]2CN(c3nccc(NCC(C)(C)O)c3C(F)(F)F)C(=O)[C@H]2NC(=O)N[C@H]2CC[C@H](C(F)F)CC2)c(F)c1` [Example 104], the EC50 in assay [1] was found to be 5000 nM; in assay [2], 39 nM.

Regarding `COc1cc(F)c([C@@H]2CN(c3nccc(NC4CCOC4)c3C(F)(F)F)C(=O)[C@H]2NC(=O)N[C@H]2CC[C@H](C(F)F)CC2)c(F)c1` (single isomer, unassigned) [Example 100], the results for the EC50 in assay [1] and in assay [2] were above 10000 nM and 9 nM, respectively.

`COCCn1cccc(N2C[C@@H](c3c(F)cc(OC)cc3F)[C@H](NC(=O)NC3CCc4cc(Cl)ccc4C3)C2=O)c1=O` (stereo partly drawn) [Example 17]: the EC50 in assay [1] turned out to be 0.6 nM; in assay [2] it was 1.7 nM.

Turning to `COc1cc(F)c([C@@H]2CN(c3ncccc3C(F)(F)F)C(=O)[C@H]2NC(=O)NC2CCc3ccccc3C2)c(F)c1` (stereo partly drawn) [Example 24], the results for the EC50 in assay [1] and in assay [2] were 18 nM and 2.8 nM, respectively.

For the molecule `COCCn1ccc(C)c(N2C[C@@H](c3c(F)cc(OC)cc3F)[C@H](NC(=O)NC3CCc4cc(Cl)ccc4C3)C2=O)c1=O` (stereo partly drawn) [Example 22], the EC50 in assay [1] is 2.1 nM; in assay [2], 2.7 nM.

For the molecule `COc1cc(F)c([C@@H]2CN(c3c(C)ccn(CCO)c3=O)C(=O)[C@H]2NC(=O)NC2CCc3cc(OC)ccc3C2)c(F)c1` (single isomer, unassigned) [Example 84], the EC50 in assay [1] was 0.3 nM; in assay [2] it was 1.4 nM.

In the case of `COc1cc(F)c([C@@H]2CN(c3ncccc3C(F)(F)F)C(=O)[C@H]2NC(=O)NC2CCC3(CC2)CC3)c(F)c1` [Example 67], the EC50 was above 10000 nM in assay [1] and 97 nM in assay [2].

Take `COc1cc(F)c([C@@H]2CN(c3ncccc3C(F)(F)F)C(=O)[C@H]2NC(=O)NC2COc3cc(OC)ccc3C2)c(F)c1` (stereo partly drawn) [Example 28]: the figures for the EC50 in assay [1] and in assay [2] were 3 nM and 3.3 nM, respectively.

Regarding `COc1cc(F)c([C@@H]2CN(c3nccc(N4C[C@@H]5C[C@H]4CN5C)c3C(F)(F)F)C(=O)[C@H]2NC(=O)N[C@H]2CC[C@H](C(F)F)CC2)c(F)c1` (single isomer, unassigned) [Example 96], the EC50 is 3400 nM in assay [1] and 4.6 nM in assay [2].

On to `COCCn1ccc(OC)c(N2C[C@@H](c3c(F)cc(OC)cc3F)[C@H](NC(=O)NC3CCc4cc(Cl)ccc4C3)C2=O)c1=O` (stereo partly drawn) [Example 38], for which the EC50 was 1.3 nM in assay [1] and 4.5 nM in assay [2].

For the molecule `COc1cc(F)c([C@@H]2CN(c3nccc(N4CCOCC4)c3C(F)(F)F)C(=O)C2NC(=O)N[C@H]2CC[C@H](C(F)F)CC2)c(F)c1` (stereo partly drawn) [Example 1, 1-((3S,4R)-4-(2,6-Difluoro-4-methoxyphenyl)-1-(4-morpholino-3-(trifluoromethyl)pyridin-2-yl)-2-oxopyrrolidin-3-yl)-3-((1r,4S)-4-(difluoromethyl)cyclohexyl) urea], the results for the EC50 in assay [1] and in assay [2] were 6800 nM and 14.8 nM, respectively.

As for `CCn1nccc(N2C[C@@H](c3c(F)cc(OC)cc3F)[C@H](NC(=O)NC3CCc4cc(OC)ccc4C3)C2=O)c1=O` (single isomer, unassigned) [Example 87], the EC50 in assay [1] is 4.8 nM; in assay [2], 3.2 nM.

`COCCn1cccc(N2C[C@@H](c3ccc(OC)cc3)[C@H](NC(=O)NC3CCc4cc(OC)ccc4C3)C2=O)c1=O` (stereo partly drawn) [Example 11]: the EC50 stood at 0.1 nM in assay [1] and 0.8 nM in assay [2].

As to `COCC(CO)n1cccc(N2C[C@@H](c3c(F)cc(OC)cc3F)[C@H](NC(=O)NC3CCc4cc(OC)ccc4C3)C2=O)c1=O` (stereo partly drawn) [Example 81], the EC50 in assay [1] worked out at 1.5 nM; in assay [2], 5.9 nM.

With `COc1cc(F)c([C@@H]2CN(c3nccc(N4CCOCC4)c3C(F)(F)F)C(=O)[C@H]2NC(=O)N[C@H]2CC[C@H](C(F)F)CC2)c(F)c1` [Example 108], the EC50 in assay [1] was 3500 nM; in assay [2], 670 nM.

Regarding `COCCn1ccc(C)c(N2C[C@@H](c3c(F)cc(OC)cc3F)[C@H](NC(=O)NC3CCc4cc(OC)ccc4C3)C2=O)c1=O` (stereo partly drawn) [Example 7], the results for the EC50 in assay [1] and in assay [2] were 0.7 nM and 0.5 nM, respectively.

For `COc1cc(F)c([C@@H]2CN(c3cccn(CC(O)C(F)(F)F)c3=O)C(=O)[C@H]2NC(=O)NC2CCc3cc(OC)ccc3C2)c(F)c1` (stereo partly drawn) [Example 80], the figures for the EC50 in assay [1] and in assay [2] were 1 nM and 11 nM, respectively.

With `CNC(=O)CNc1ccnc(N2C[C@@H](c3c(F)cc(OC)cc3F)[C@H](NC(=O)N[C@H]3CC[C@H](C(F)F)CC3)C2=O)c1C(F)(F)F` [Example 72], the results for the EC50 in assay [1] and in assay [2] were above 1000 nM and 25 nM, respectively.

With `COc1cc(F)c([C@@H]2CN(c3c(C)ccn(CCO)c3=O)C(=O)[C@H]2NC(=O)NC2CCc3cc(OC)ccc3C2)c(F)c1` (single isomer, unassigned) [Example 83], the values for the EC50 in assay [1] and in assay [2] were 12 nM and 1 nM, respectively.

With `COc1cc(F)c([C@@H]2CN(c3c(OC)ccn(C)c3=O)C(=O)[C@H]2NC(=O)NC2CCc3cc(Cl)ccc3C2)c(F)c1` (stereo partly drawn) [Example 8], the concentration for a half-maximal effect (EC50) was 0.5 nM in assay [1] and 0.6 nM in assay [2].

In the case of `COc1cc(F)c([C@H]2[C@H](NC(=O)N[C@H]3CC[C@H](C(F)F)CC3)C(=O)N(c3cccn(CCO)c3=O)[C@H]2C)c(F)c1` [Example 71], the EC50 in assay [1] worked out at 1100 nM; in assay [2], 54 nM.

Turning to `COc1cc(F)c([C@@H]2CN(c3nccc(NC4CCOCC4)c3C(F)(F)F)C(=O)[C@H]2NC(=O)N[C@H]2CC[C@H](C(F)F)CC2)c(F)c1` [Example 68], the EC50 turned out to be 4800 nM in assay [1] and 27 nM in assay [2].

In the case of `COc1cc(F)c([C@@H]2CN(c3nccc(NCC4CCOC4)c3C(F)(F)F)C(=O)[C@H]2NC(=O)N[C@H]2CC[C@H](C(F)F)CC2)c(F)c1` (single isomer, unassigned) [Example 73], the EC50 is above 1000 nM in assay [1] and 320 nM in assay [2].

In the case of `COc1cc(F)c([C@@H]2CN(c3nccc(NC4CCOC4)c3C(F)(F)F)C(=O)[C@H]2NC(=O)N[C@H]2CC[C@H](C(F)F)CC2)c(F)c1` (single isomer, unassigned) [Example 99], the EC50 came out at 730 nM in assay [1] and 6.2 nM in assay [2].

As to `COCCn1cccc(N2C[C@@H](c3c(F)cc(OC)cc3F)[C@H](NC(=O)NC3CCc4cc(OC)ccc4C3)C2=O)c1=O` (stereo partly drawn) [Example 53], the EC50 in assay [1] is 24.6 nM; in assay [2] it was 13 nM.
